US20240262795A1, “PYRAZINE COMPOUNDS AS INHIBITORS OF FLT3” (Biomea Fusion, Inc., priority 2021, published 2024)

Legend:
Format in all cases: cell-based, human
MOLM-13 = assay: Proliferation inhibition, CellTiter-Glo, MOLM-13; conditions: Homo sapiens, 96 h; MOLM-13 cells, IC50 (4 days), CellTiter-Glo; read-out: MOLM-13 IC50
Description: (§1) The proliferation inhibitory effect was investigated in human AML cell lines MOLM-13 (AddexBio: C0003003) and MV-4-11 (ATCC: CRL-9591), and CML cell line […] (ATCC: CRL-3343). Molm-13 is heterozygous for FLT3-ITD mutation, while MV4-11 is homozygous for FLT3-ITD (Quentmeier H, et al., Leukemia. 17(1):120-4). […] Cells were maintained in RPMI-1640 medium (ThermoFisher catalog no. 61870036) supplemented with 10% of Heat Inactivated FBS (ThermoFisher catalog no. A31605) and 1% Pen-Strep (ThermoFisher catalog no. 10378016) and cultured at 37° C. in a humidified incubator with 5% CO2. Cell lines were grown by […], and the cells were maintained in a range 70%-80% confluency.
(§2) ATP is present in all metabolically active cells and is considered as a marker for cell viability and proliferation. Metabolic cell activity was determined using the CellTiter-Glo kit (Promega catalog no. G7572), an ATP monitoring system based on the production of luminescence by the reaction of ATP with added UltraGlo® recombinant luciferase (Kawano et al., 2016, PLOS One, 8; 11(7):e0158888), according to the supplier's experimental recommendations. The assay was based on a 96 well plate format.
(§3) Test compounds were dissolved at 10 mM in DMSO (Sigma catalog no. D8418; purity≥99.9%) and stored at −20° C. Eight concentrations of test compound were assessed in duplicate in an individual test occasion in parallel in the selected cell lines. Gilteratinib and FF-10101 were used as reference compounds and tested in duplicate at eight concentrations. 100% of proliferation is represented by the untreated cells (0.2% DMSO).
(§4) On the day of the experiment, cells were quantified with the cell viability analyzer NucleoCounter (Chemometec NC-200) and diluted with fresh medium to obtain the cell density of about 10,000 cells per 200 μL medium. 200 μL of cell suspension were added into wells in the 96 well plate.
(§5) After 2 hours from seeding cells, compounds at desired concentrations were added using a D300e compound dispenser (Life Sciences Tecan D300) with shaking between each compound dispensed. Assay plates were incubated at 37° C. in a humidified incubator with 5% CO2.
(§6) On day 4 (˜96 hrs after compound addition) assay plates were equilibrated at room temperature for approximately 15 min, and then 40 μL/well of the Promega CellTiterGlo® reagent was added. Contents were mixed for 5 min on an orbital shaker to promote cell lysis, and then incubated at room temperature for an additional 10 min in the dark to stabilize the luminescent signal. Luminescence was read by using a GloMlax GM300 plate reader (Promega) using the luminescence for 96 well plate standard protocol.
(§7) Results were analyzed by GraphPad (Prism) and IC50 values were calculated by non-linear regression using four parameter-logistic equation.

MV-4-11 = assay: Proliferation inhibition, CellTiter-Glo, MV-4-11; conditions: Homo sapiens, MV4-11, 96 h; MV-4:11 cells, IC50 (4 days), CellTiter-Glo; read-out: MV-4:11 IC50
Description: as §1, §2, §3, §4, §5, §6, §7

K-562 = assay: Proliferation inhibition, CellTiter-Glo, K-562; conditions: Homo sapiens, K562, 96 h; K-562 cells, IC50 (4 days), CellTiter-Glo; read-out: K-562 IC50
Description: as §1, §2, §3, §4, §5, §6, §7

Structure (SMILES) | IC50 (MOLM-13) [µM] | IC50 (MV-4-11) [µM] | IC50 (K-562) [µM]
CCc1nc(C(N)=O)c(Nc2cccc(CCNC(=O)[C@H](C)N(C)C(=O)/C(F)=C/CN(C)C)c2)nc1N(C)C [Compound 162, (S,Z)-5-(dimethylamino)-3-((3-(2-(2-(4-(dimethylamino)-2-fluoro-N-methylbut-2-enamido)propanamido)ethyl)phenyl)amino)-6-ethylpyrazine-2-carboxamide] | 0.1 to 0.5 | 0.01 to 0.1 | > 0.5
C=C(F)C(=O)N(C)[C@@H](C)C(=O)NCCc1cccc(Nc2nc(C3CC3)c(CC)nc2C(N)=O)c1 [Compound 215, 5-cyclopropyl-6-ethyl-3-[3-[2-[[(2S)-2-[2-fluoroprop-2-enoyl(methyl)amino]propanoyl]amino]ethyl]anilino]pyrazine-2-carboxamide] | > 0.5 | > 0.5 | > 0.5
C=CC(=O)N(C)[C@@H](C)C(=O)NCCc1cccc(Nc2nc(C)c(CC)nc2C(N)=O)c1 [Compound 216, 6-ethyl-5-methyl-3-[3-[2-[[(2S)-2-[methyl(prop-2-enoyl)amino]propanoyl]amino]ethyl]anilino]pyrazine-2-carboxamide] | 0.01 to 0.1 | 0.01 to 0.1 | > 0.5
CC#CC(=O)N(C)[C@@H](C)C(=O)NCCc1cccc(Nc2nc(N(C)C)c(C)nc2C(N)=O)c1 [Compound 217, 3-[3-[2-[[(2S)-2-[but-2-ynoyl(methyl)amino]propanoyl]amino]ethyl]anilino]-5-(dimethylamino)-6-methyl-pyrazine-2-carboxamide] | 0.01 to 0.1 | 0.01 to 0.1 | > 0.5
C=CC(=O)N(C)[C@@H](C)C(=O)NCCc1cccc(Nc2nc(N(C)C)c(C)nc2C(N)=O)c1 [Compound 218, 5-(dimethylamino)-6-methyl-3-[3-[2-[[(2S)-2-[methyl(prop-2-enoyl)amino]propanoyl]amino]ethyl]anilino]pyrazine-2-carboxamide] | 0.01 to 0.1 | 0.001 to 0.01 | > 0.5
CCc1nc(C(N)=O)c(Nc2cccc(CCNC(=O)C3(N(C)C(=O)/C=C/CN(C)C)CC3)c2)nc1C1CC1 [Compound 220, 5-cyclopropyl-3-[3-[2-[[1-[[(E)-4-(dimethylamino)but-2-enoyl]-methyl-amino]cyclopropanecarbonyl]amino]ethyl]anilino]-6-ethyl-pyrazine-2-carboxamide] | 0.01 to 0.1 | 0.001 to 0.01 | > 0.5
Cc1cc(C(N)=O)c(Nc2cncc(CCNC(=O)[C@H](C)N(C)C(=O)/C=C/CN(C)C)c2)nc1C1CC1 [Compound 323, (S,E)-6-cyclopropyl-2-((5-(2-(2-(4-(dimethylamino)-N-methylbut-2 enamido)propanamido)ethyl)pyridin-3-yl)amino)-5-methylnicotinamide] | 0.1 to 0.5 | 0.01 to 0.1 | –
[2H]C([2H])([2H])N(C/C=C/C(=O)N(C)[C@@H](C)C(=O)NCCc1cccc(Nc2nc(NC(C)C)c(CC)nc2C(N)=O)c1)C([2H])([2H])[2H] [Compound 505, (S,E)-3-((3-(2-(2-(4-(bis(methyl-d3)amino)-N-methylbut-2-enamido)propanamido)ethyl)phenyl)amino)-6-ethyl-5-(isopropylamino)pyrazine-2-carboxamide] | – | – | > 0.5

Second part, the compound after the results:

IC50 (MOLM-13) [µM] | IC50 (MV-4-11) [µM] | IC50 (K-562) [µM] | Structure (SMILES)
0.001 to 0.01 | 0.001 to 0.01 | > 0.5 | CCc1nc(C(N)=O)c(Nc2cccc(CCNC(=O)[C@H](C)N(C)C(=O)/C=C/CN(C)C)c2)nc1C [Compound 142A, (S,E)-3-((3-(2-(2-(4-(dimethylamino)-N-methylbut-2-enamido)propanamido)ethyl)phenyl)amino)-6-ethyl-5-methylpyrazine-2-carboxamide]
0.01 to 0.1 | 0.001 to 0.01 | > 0.5 | CC#CC(=O)N(C)[C@@H](C)C(=O)NCCc1cccc(Nc2nc(N(C)C)c(CC)nc2C(N)=O)c1 [Compound 160, 3-[3-[2-[[(2S)-2-[but-2-ynoyl(methyl)amino]propanoyl]amino]ethyl]anilino]-5-(dimethylamino)-6-ethyl-pyrazine-2-carboxamide]
0.001 to 0.01 | 0.001 to 0.01 | > 0.5 | CCc1nc(C(N)=O)c(Nc2cc(F)cc(CCNC(=O)[C@H](C)N(C)C(=O)/C=C/CN(C)C)c2)nc1C [Compound 163, 3-[3-[2-[[(2S)-2-[[(E)-4-(dimethylamino)but-2-enoyl]-methyl-amino]propanoyl]amino]ethyl]-5-fluoro-anilino]-6-ethyl-5-methyl-pyrazine-2-carboxamide]
0.01 to 0.1 | 0.001 to 0.01 | > 0.5 | [2H]C([2H])([2H])N(C/C=C/C(=O)N(C)[C@@H](C)C(=O)NCCc1cccc(Nc2nc(C)c(CC)nc2C(N)=O)c1)C([2H])([2H])[2H] [Compound 164, 3-[3-[2-[[(2S)-2-[[(E)-4-[bis(trideuteriomethyl)amino]but-2-enoyl]-methyl-amino]propanoyl]amino]ethyl]anilino]-6-ethyl-5-methyl-pyrazine-2-carboxamide]
0.001 to 0.01 | 0.001 to 0.01 | > 0.5 | CCc1nc(C(N)=O)c(Nc2cccc(CCNC(=O)[C@H](C)N(C)C(=O)/C=C/CN3CCC3)c2)nc1C [Compound 202, (S,E)-3-((3-(2-(2-(4-(azetidin-1-yl)-N-methylbut-2-enamido)propanamido)ethyl)phenyl)amino)-6-ethyl-5-methylpyrazine-2-carboxamide]
0.01 to 0.1 | 0.01 to 0.1 | > 0.5 | Cc1nc(Nc2cccc(CCNC(=O)[C@H](C)N(C)C(=O)/C=C/CN(C)C)c2)c(C(N)=O)nc1C [Compound 207, 3-[3-[2-[[(2S)-2-[[(E)-4-(dimethylamino)but-2-enoyl]-methyl-amino]propanoyl]amino]ethyl]anilino]-5,6-dimethyl-pyrazine-2-carboxamide]
0.01 to 0.1 | 0.001 to 0.01 | > 0.5 | C=CC(=O)N(C)[C@@H](C)C(=O)NCCc1cccc(Nc2nc(C3CC3)c(CC)nc2C(N)=O)c1 [Compound 208, 5-cyclopropyl-6-ethyl-3-[3-[2-[[(2S)-2-[methyl(prop-2-enoyl)amino]propanoyl]amino]ethyl]anilino]pyrazine-2-carboxamide]
0.01 to 0.1 | 0.001 to 0.01 | > 0.5 | CC#CC(=O)N(C)[C@@H](C)C(=O)NCCc1cccc(Nc2nc(C3CC3)c(CC)nc2C(N)=O)c1 [Compound 209, 3-[3-[2-[[(2S)-2-[but-2-ynoyl(methyl)amino]propanoyl]amino]ethyl]anilino]-5-cyclopropyl-6-ethyl-pyrazine-2-carboxamide]
0.01 to 0.1 | 0.001 to 0.01 | > 0.5 | Cc1nc(C(N)=O)c(Nc2cccc(CCNC(=O)C(C)N(C)C(=O)/C=C/CN(C)C)c2)nc1C1CC1 (stereo not drawn) [Compound 211, 5-cyclopropyl-3-[3-[2-[2-[[(E)-4-(dimethylamino)but-2-enoyl]-methyl-amino]propanoylamino]ethyl]anilino]-6-methyl-pyrazine-2-carboxamide]
0.01 to 0.1 | 0.01 to 0.1 | > 0.5 | Cc1nc(Nc2cccc(CCNC(=O)[C@H](C)N(C)C(=O)/C=C/CN3CCC3)c2)c(C(N)=O)nc1C [Compound 214, 3-[3-[2-[[(2S)-2-[[(E)-4-(azetidin-1-yl)but-2-enoyl]-methyl-amino]propanoyl]amino]ethyl]anilino]-5,6-dimethyl-pyrazine-2-carboxamide]
